Data taken from US20260285870A1, “TRIAZOLOPYRIDAZINE DERIVATIVE, PREPARATION METHOD THEREFOR, PHARMACEUTICAL COMPOSITION THEREOF, AND USE THEREOF” (SHANGHAI SIMR BIOTECHNOLOGY CO., LTD., priority 2019, published 2026).

system: not listed separately; experiment: Pharmacokinetic experiment on rats: maximum plasma drug concentration (Cmax); type: in vivo; conditions: rat, male SD rats, po, 10 mg/kg, 5% CMC-Na aqueous solution
Method: In the pharmacokinetic experiment on rats, the maximum plasma drug concentration (Cmax) was used to evaluate the absorption of the compounds in rats. All rats fasted overnight before administration; the test compounds were dissolved and administered orally (po) to male SD rats, with 3 rats in each group. After administration of the test compounds, blood was collected by jugular vein puncture at […] with about 0.25 mL per sample. The plasma drug concentration was determined by LC-MS/MS method, and the pharmacokinetic parameters were calculated by Phoenix WinNonlin7.0. The dosage was 10 mg/kg, and the vehicle was 5% CMC-Na aqueous solution.

Cmax [ng/mL]	SMILES
25.7	Cc1cc(-c2nnc3c4ccccc4c(OCc4ccccn4)nn23)no1 [α51A-II, reference compound]
1780	COc1cc2nnc(-c3cc(C)on3)n2nc1OCc1ccccn1 [Embodiment 33]
216	Cc1cc(-c2nnc3cc(C(C)(C)C)c(OCc4ccccn4)nn23)no1 [drawing 930]

system: not listed separately; experiment: Rat liver microsome stability (RLM) experiment; type: in vitro ADME; conditions: pH 7.4; rat liver microsomes 0.5 mg protein/mL, NADPH, 37° C., 0-45 min
Method: Rat liver microsomes (Xenotech, item No. R1000, lot No. 1310030), 100 mM potassium phosphate buffer solution (pH 7.4), 10 mM magnesium chloride.
Compound preparation: 5 μL of compound DMSO mother liquor (10 mM) was added to 495 μL of methanol to obtain an intermediate solution with a compound concentration of 100 μM. Then 50 μL of the intermediate solution was taken and dissolved in 450 μL of potassium phosphate buffer solution to obtain a test solution with a final concentration of 10 μM.
NADPH regeneration system (concentration of isocitrate dehydrogenase 1 unit/mL).
Liver microsomes (final concentration 0.5 mg protein/mL).
Reaction termination solution: cold acetonitrile containing 100 ng/mL Tolbutamide and 100 ng/mL Labetalol as an internal standard.
• (1) Preparation of Buffer Solution: • Buffer solution A: 1.0 L of 0.1 M potassium phosphate buffer solution containing 1.0 mM EDTA • Buffer solution B: 1.0 L of 0.1 M dipotassium phosphate buffer solution containing 1.0 mM EDTA • Buffer solution C: 0.1 M potassium phosphate buffer, 1.0 mM EDTA, pH 7.4, titrated with 700 mL of buffer solution B and buffer solution A, monitored by pH meter. • (2) Preparation of Reference Substance (Ketanserin) and Concentration of Administration Solution of the Test Substance
5000 administration solution: […] 10 mM DMSO reference substance stock solution and test substance stock solution were added to 190 μL of ACN, respectively. 1.5 μM administration solution (containing 0.75 mg/mL liver microsomes): […] administration solution and 18.75 μL of 20 mg/mL liver microsomes were added to 479.75 μL of buffer C on a wet ice. • (3) NADPH was added to buffer solution C to obtain a NADPH stock solution (6 mM). • (4) 30 μL of 1.5 μM administration solution (containing 0.75 mg/mL of liver microsomes) was taken on the wet ice and added to the wells of the test plate at different time points (0-, 5-, 15-, 30-, 45-min), respectively. • (5) Firstly, 135 μL of ACN containing IS was added to the wells of a 0 min test plate, and then 15 µL of the NADPH stock solution (6 mM) was added. • (6) The test plate at other time points and the NADPH stock solution were pre-heated in a 37° C. water bath for 5 minutes. • (7) 15 μL of the NADPH stock solution (6 mM) was taken and added to a pre-incubated test plate, and the reaction was started and timed. • (8) At 5 min, 15 min, 30 min and 45 min, 135 µL of CAN containing IS was added to the corresponding test plate respectively, and the test was completed. • (9) Test plates were shaken with a shaker (IKA, MTS 2/4) for 10 min (600 rpm/min) and then centrifuged for 15 min (Thermo Multifuge×3R, 5594 g). • (10) 50 μL of supernatant from each well was added to a 96-well sample plate containing 50 μL of ultrapure water (Millipore, ZMQS50F01), and the samples were analyzed by LC/MS.

microsomal CLint [µL/min/mg]	SMILES
5	COc1cc2nnc(-c3cc(C)on3)n2nc1OCc1ccc(OC2COC2)nn1 [Embodiment 153]
22	COc1cc2nnc(-c3cc(C)on3)n2nc1OCc1ccc2c(n1)CCN(C1CCOCC1)C2 [Embodiment 186]
1	COCc1ccc(COc2nn3c(-c4cc(C)on4)nnc3cc2OC)nn1 [Embodiment 151]
15	COc1cc2nnc(-c3cc(C)on3)n2nc1OCc1ccc2c(n1)CCN(Cc1cc(C)on1)C2 [Embodiment 187]
5	COc1cc2nnc(-c3cc(C)on3)n2nc1OCc1ccc2nc(C#N)cn2n1 [Embodiment 211]
9	COc1cc2nnc(-c3cc(C)on3)n2nc1OCc1ccc2c(n1)CCN(C(CO)CO)C2 [Embodiment 185]
11.4	CCNC(=O)c1ccc(COc2nn3c(-c4cc(C)on4)nnc3cc2OC)nc1 [Embodiment 35]
5	COc1cc2nnc(-c3cc(C)on3)n2nc1OCc1ccc2c(n1)CCN(C1CCOC1)C2 (stereo not shown) [Embodiment 183]
10	COc1cc2nnc(-c3cc(C)on3)n2nc1OCc1ccc2c(n1)CN(C1CCOCC1)C2 [Embodiment 253]
10	COCc1cn2nc(COc3nn4c(-c5cc(C)on5)nnc4cc3OC)ccc2n1 [Embodiment 213]
6	COc1cc2nnc(-c3cc(C)on3)n2nc1OCc1ccc2c(n1)CN(C)C2 [Embodiment 160]

Second part, the compound before the results:

SMILES	microsomal CLint [µL/min/mg]
Cc1cc(-c2nnc3c4ccccc4c(OCc4ccccn4)nn23)no1 [α51A-II, reference compound]	28.2
COCCCOc1ccc(COc2nn3c(-c4noc(C)n4)nnc3cc2OC)nn1 [Embodiment 129]	14
CCNC(=O)c1ccc(COc2nn3c(-c4cc(C)on4)nnc3cc2C(C)(C)C)nc1 [Compound 42 in CN107344936A, reference compound]	143
COc1cc2nnc(-c3cc(C)on3)n2nc1OCc1ccccn1 [Embodiment 33]	0.3
COc1cc2nnc(-c3cc(C)on3)n2nc1OCc1ccc(OC2CCOCC2)nn1 [Embodiment 152]	23
COc1cc2nnc(-c3cc(C)on3)n2nc1OCc1ccc(OC2CCOC2)nn1 (stereo not shown) [Embodiment 154]	1
COc1cc2nnc(-c3cc(C)on3)n2nc1OCc1ccc(C2(F)CN(C3COC3)C2)cn1 [Embodiment 128]	6
Cc1cc(-c2nnc3cc(C(C)(C)C)c(OCc4ccccn4)nn23)no1 [drawing 926, reference compound]	33.6

same assay, conditions: rat liver microsomes 0.5 mg protein/mL, NADPH, 37° C., 0-45 min

RLM [µL/min/mg]	SMILES
0	COc1cc2nnc(-c3cc(C)on3)n2nc1OCc1ccc2c(n1)CCN(C1COC1)C2 [Embodiment 84]
0	COCCOCc1ccc(COc2nn3c(-c4cc(C)on4)nnc3cc2OC)nn1 [Embodiment 166]

system: not listed separately; experiment: Water solubility observed during work-up; type: physicochemical; conditions: observation at extraction, pH=7
Method: Methyl 6-[7-methoxy-3-(5-methyl-isoxazol-3-yl)-[1,2,4]triazolo[4,3-b]pyridazin-6-yloxymethyl]-nicotinate (300 mg, 0.75 mmol), 1 M lithium hydroxide (1.5 mL, 1.5 mmol) were sequentially added to 10 mL of ethanol, and the mixture was stirred at room temperature for 1 hour. The mixture was added with 0.5 M hydrochloric acid to neutralize to pH=7, diluted with water, extracted with ethyl acetate. […] LC-MS: m/z [M+H]^+=383.

water solubility	SMILES
good water solubility	COc1cc2nnc(-c3cc(C)on3)n2nc1OCc1ccc(C(=O)O)cn1 [Embodiment 63]

system: not listed separately; experiment: Pharmacokinetic experiment on rats: brain entry ratio (brain tissue/plasma concentration ratio); type: in vivo; conditions: male SD rats, po, 10 mg/kg, 0.5 hours
Method: The drug concentration ratio of plasma and brain tissue in the pharmacokinetic experiment on rats was used to evaluate the entry of compounds into brain. All rats fasted overnight before administration; the test compounds were dissolved and administered orally (po) to male SD rats, with 3 rats in each group. After administration of the test compounds, blood was collected by jugular vein puncture at 0.5 hours with about 0.25 mL per sample. The whole brain was taken at the same time. The plasma and brain tissue drug concentration were determined by LC-MS/MS method, and the pharmacokinetic parameters were calculated by Phoenix WinNonlin7.0. The dosage was 10 mg/kg, and the vehicle was 5% CMC-Na aqueous solution.

Brain entry ratio [%]	SMILES
0	COc1cc2nnc(-c3cc(C)on3)n2nc1OCc1ccc2c(n1)CCN(C(CO)CO)C2 [Embodiment 185]

system: α5-GABAA receptor; experiment: not given; parameters: suppression of the current induced by GABA: dose or concentration left out as unconfirmed; conditions: GABA concentration increased further; cited from earlier work

SMILES	inhibitory effect on the current induced by GABA
CCOC(=O)c1ncn2c1[C@@H]1CCCN1C(=O)c1cc(OC)ccc1-2 [L-655,708]	no inhibitory effect

same assay, conditions: highest concentration of L-655,708; cited from earlier work

SMILES	suppression of the current induced by GABA [%]
CCOC(=O)c1ncn2c1[C@@H]1CCCN1C(=O)c1cc(OC)ccc1-2 [L-655,708]	15

same assay, conditions: low concentrations of GABA (5, 50 and 500 nM); cited from earlier work

SMILES	inhibition of the current induced by GABA
CCOC(=O)c1ncn2c1[C@@H]1CCCN1C(=O)c1cc(OC)ccc1-2 [L-655,708]	dose-dependently inhibited

system: α5-GABAA receptor; experiment: not given; conditions: animal models; cited from earlier work

SMILES	therapeutic effects on cognition related diseases
Cc1cc(-c2nnc3c4ccccc4c(OCc4cn(C)nn4)nn23)no1 [α5IA]	good therapeutic effects
Cc1cc(-c2nncc3c(C(C)(C)C)c(OCc4ncnn4C)nn23)no1 [MRK-016]	good therapeutic effects
